Data taken from paper PMC6957519, “NLRP6 self-assembles into a linear molecular platform following LPS binding and ATP stimulation” (Scientific Reports, 2020).
“And” between values parts separate entries of the source, which are not always exact repeats. Equal entries are not always repeated.

T1: NLRP6 (Homo sapiens, UniProt P59044)
T1 construct: full-length 1-892; N-terminal His-MBP tag removed by HRV3C; E. coli BL21(DE3); monomer, dimerises with LPS
T1 sequence (P59044 1-892): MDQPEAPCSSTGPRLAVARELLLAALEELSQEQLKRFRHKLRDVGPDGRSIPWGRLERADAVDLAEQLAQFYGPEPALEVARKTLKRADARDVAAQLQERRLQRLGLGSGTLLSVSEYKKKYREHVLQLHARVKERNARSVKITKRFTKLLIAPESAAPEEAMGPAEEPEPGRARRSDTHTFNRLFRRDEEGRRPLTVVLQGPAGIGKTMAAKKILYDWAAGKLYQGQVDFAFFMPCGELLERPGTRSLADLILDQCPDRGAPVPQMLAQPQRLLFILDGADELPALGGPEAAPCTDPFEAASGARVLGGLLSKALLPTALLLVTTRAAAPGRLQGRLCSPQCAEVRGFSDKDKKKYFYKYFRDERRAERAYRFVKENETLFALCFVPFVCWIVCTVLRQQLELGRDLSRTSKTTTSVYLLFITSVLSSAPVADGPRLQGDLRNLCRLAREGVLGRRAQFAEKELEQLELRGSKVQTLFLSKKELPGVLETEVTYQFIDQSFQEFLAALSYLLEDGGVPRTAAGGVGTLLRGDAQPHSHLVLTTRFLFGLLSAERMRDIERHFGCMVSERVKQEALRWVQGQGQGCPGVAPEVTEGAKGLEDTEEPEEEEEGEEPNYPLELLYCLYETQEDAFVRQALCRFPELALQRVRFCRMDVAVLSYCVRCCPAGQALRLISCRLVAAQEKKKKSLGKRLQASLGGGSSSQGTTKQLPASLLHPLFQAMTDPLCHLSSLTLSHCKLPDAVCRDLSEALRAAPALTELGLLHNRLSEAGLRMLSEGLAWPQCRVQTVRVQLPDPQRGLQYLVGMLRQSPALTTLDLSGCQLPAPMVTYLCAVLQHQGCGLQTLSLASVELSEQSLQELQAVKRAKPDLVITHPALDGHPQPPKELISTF

B1: Recombinant full-length human NLRP6 (1–892) (natural protein, UniProt P59044 1-892, looked up)
chain: T1 sequence (P59044 1-892)
notes: NLRP6, human, full length, residues 1-892; Number of copies depends on the condition: monomer in the arginine buffer, dimer with LPS, tetramer, hexamer and longer linear oligomers with LPS and ATP; also called NLRP6 monomer; NLRP6 dimer; not shown: His-tag, N-terminal, cleaved; MBP, N-terminal, cleaved

Assays:
[1] = molecular target: T1, NLRP6; assay: gel filtration and EM, nucleotide-induced oligomerization; type: binding; settings: with LPS (LPS-bound dimer); no shift of the monomer with ATP alone; putative NOD domain site
[2] = molecular target: T1, NLRP6; assay: nucleotide-induced oligomerization; type: binding; settings: with LPS (LPS-bound dimer); putative NOD domain site
[3] = molecular target: the molecule itself; assay: negative-stain electron microscopy with 3D reconstruction; NLRP6 with LPS and 1 mM ATP (peak 3 of the gel filtration); particles classed by the number of shrinked links; tetramer map from 8783 particles
[4] = molecular target: the molecule itself; assay: negative-stain electron microscopy; NLRP6 with LPS and ATP increased to 2 mM
[5] = molecular target: the molecule itself; assay: SEC; NLRP6 monomer incubated with LPS (Ra, 10 uM or 20 uM; NLRP6 to component 1:20), Superdex 200 10/300; similar peak shifts with LPS Rc, Rd, Re, Lipid A, FITC-LPS and Pam3CSK4

Molecule | nucleotide-induced oligomerization [2] | also measured
Nc1ncnc2c1ncn2[C@@H]1O[C@H](COP(=O)(O)OP(=O)(O)OP(=O)(O)O)[C@@H](O)[C@H]1O [ATP] |  | gel filtration and EM, nucleotide-induced oligomerization [1]: in the presence of both ATP and LPS, NLRP6 showed additional peak shifts
Nc1ccn([C@@H]2O[C@H](COP(=O)(O)OP(=O)(O)OP(=O)(O)O)[C@@H](O)[C@H]2O)c(=O)n1 [CTP] | demonstrated by ATP, GTP, CTP, TTP, and deoxy-ATP (dATP) treatment | 
Nc1nc2c(ncn2[C@@H]2O[C@H](COP(=O)(O)OP(=O)(O)OP(=O)(O)O)[C@@H](O)[C@H]2O)c(=O)[nH]1 [GTP] | demonstrated by ATP, GTP, CTP, TTP, and deoxy-ATP (dATP) treatment | 
Cc1cn([C@H]2C[C@H](O)[C@@H](COP(=O)(O)OP(=O)(O)OP(=O)(O)O)O2)c(=O)[nH]c1=O [TTP] | demonstrated by ATP, GTP, CTP, TTP, and deoxy-ATP (dATP) treatment | 
Nc1ncnc2c1ncn2[C@H]1C[C@H](O)[C@@H](COP(=O)(O)OP(=O)(O)OP(=O)(O)O)O1 [deoxy-ATP] | demonstrated by ATP, GTP, CTP, TTP, and deoxy-ATP (dATP) treatment | 
B1 |  | stoichiometry N [3]: 4 and 6 and 8 and 10; stoichiometry N [4]: 16 and 18; stoichiometry N [5]: 2
